In brackets after ≈: the same amount, converted by molar mass.
Tests used:
E. coli 81^R = test: Susceptibility (MIC, PAE, MBC), broth microdilution; settings: Escherichia coli
Method: (§1) MICs were determined by the broth microdilution method according to CLSI methods (Clinical and Laboratory Standards Institute, 2005). Inoculants were incubated at 37° C. on cation adjusted Mueller Hinton (MH) Broth for 18 to 24 h. Compound were dissolved in media to 10 doubling dilutions from 128 to 0.125 μg/mL. All the bacterial strains were grown in 96 well plate with low evaporation lid (Falcon, Becton Dickinson) in presence of derivatives of benzimidazoles at 0.125, 0.25, 0.5, 1, 2, 4, 8, 16, 32, 64, 128, 256 μg/mL concentrations. […] Plates were read by Tecan Micro-plate Reader at 600 nm.

E. coli K12 mutant ΔacrA = test: Susceptibility of E. coli K12 and mutants (MIC90); settings: Escherichia coli
Method: as §1

E. coli ATCC25922 = test: HN12b in combination with efflux pump inhibitors (CB method, FICI); settings: for FICI / Interpretation: E. coli ATCC25922
Method: (§2) 96-well microtiter plates containing MIC25 concentrations of the Efflux pump inhibitor (CCCP, PAβN) and HN12b antimicrobial drugs alone and in CB combination were used. The MICs of the individual drugs HN12b, PAβN and CCCP (0.25 to 128 μg/ml) and of the combinations were determined using the broth microdilution technique as recommended by the CLSI. Briefly, the broth microdilution plates were inoculated with each test organism to yield the appropriate density (10^5 CFU/ml) in 100 μl Mueller-Hinton broth (MHB) and incubated for 24 h at 37° C. in ambient air. One well with no antibiotic was used as a positive growth control on each plate. Plates were read for visual turbidity, and results were recorded after 24 h of incubation at 37° C. in ambient air by using a magnifying mirror reader, as turbidity in wells indicated growth of the microorganism. The MIC was determined as the well in the microtiter plate with the lowest drug concentration at which there was no visible growth. […] MICAB was defined as the MIC of drug A in the presence of drug B; MICBA was defined as the MIC of drug B in the presence of drug A.
(§3) The fractional inhibitory concentration index (FICI) was calculated for each antibiotic in each combination by using the following formula: FICA+FICB=FICI, where FICA equals the MIC of drug A in combination divided by the MIC of drug A alone and FICB equals the MIC of drug B in combination divided by the MIC of drug B alone. The FICIs were interpreted as follows: FICI of ≤0.5 will correspond to synergy; FICI of >0.5 to ≤1 will correspond to additivity; FICI of >1 to ≤4 will correspond to no interaction (indifference), and FICI of >4 will correspond antagonism.

E. coli K12 = test: Susceptibility of E. coli K12 and mutants (MIC90); settings: Escherichia coli
Method: as §1

[1] = system: K. planticola (MTCC 2272); test: HN12b in combination with efflux pump inhibitors (CB method, FICI)
Method: as §2, §3

A. baumannii (MTCC1920) = test: as above
Method: as §2, §3

E. coli 451^R = test: Susceptibility (MIC, PAE, MBC), broth microdilution; settings: Escherichia coli
Method: as §1

Enterococcus sp. (1121) [2] = test: HN12b in combination with efflux pump inhibitors (CB method, FICI)
Method: as §2, §3

Enterococcus sp. (1121) [3] = test: Susceptibility (MIC50/MIC90), broth microdilution
Method: as §1

[4] = system: Shigella flexineri (MTCC1457); test: Susceptibility (MIC50/MIC90), broth microdilution; type: cell-based
Escherichia coli 392 = test: Susceptibility (MIC50/MIC90), broth microdilution
Method: as §1

E. coli 151^R = test: Susceptibility (MIC, PAE, MBC), broth microdilution; settings: Escherichia coli
Method: as §1

Enterococcus sp. (1365) = test: Susceptibility (MIC50/MIC90), broth microdilution
Method: as §1

[5] = system: Acinetobacter baumannii (AB312); test: Susceptibility (MIC50/MIC90), broth microdilution
Method: as §1

E. coli 360^R = test: Susceptibility (MIC, PAE, MBC), broth microdilution; settings: Escherichia coli
Method: as §1

Staphylococcus sp. (976) = test: Susceptibility (MIC50/MIC90), broth microdilution
Method: as §1

P. aeruginosa (MTCC1688) = test: HN12b in combination with efflux pump inhibitors (CB method, FICI)
Method: as §2, §3

Enterococcus sp.(1150) = test: Susceptibility (MIC50/MIC90), broth microdilution
Method: as §1

[6] = system: Salmonella typhimurium (MTCC 1251); test: Susceptibility (MIC50/MIC90), broth microdilution; settings: Salmonella enterica
Method: as §1

E. coli K12 mutant ΔemrA = test: Susceptibility of E. coli K12 and mutants (MIC90); settings: Escherichia coli
Method: as §1

Enterococcus sp. (2105) = test: HN12b in combination with efflux pump inhibitors (CB method, FICI)
Method: as §2, §3

[7] = system: Klebsiella planticola (K1164); test: Susceptibility (MIC50/MIC90), broth microdilution
Method: as §1

Providencia sp. (P592) = test: HN12b in combination with efflux pump inhibitors (CB method, FICI)
Method: as §2, §3

[8] = system: most of the pathogenic bacterial strains; test: MIC of HN12b in combination with efflux pump inhibitor; settings: combination with CCCP and PAβN
Method: Briefly, the broth microdilution plates were inoculated with each test organism to yield the appropriate density (10^5 CFU/ml) in 100 μl Mueller-Hinton broth (MHB) and incubated for 24 h at 37° C. in ambient air. One well with no antibiotic was used as a positive growth control on each plate. Plates were read for visual turbidity, and results were recorded after 24 h of incubation at 37° C. in ambient air by using a magnifying mirror reader, as turbidity in wells indicated growth of the microorganism. The MIC was determined as the well in the microtiter plate with the lowest drug concentration at which there was no visible growth. […] MICAB was defined as the MIC of drug A in the presence of drug B; MICBA was defined as the MIC of drug B in the presence of drug A.

E. coli K12 mutant ΔompC = test: Susceptibility of E. coli K12 and mutants (MIC90); settings: Escherichia coli
Method: as §1

[9] = system: Providencia sp. (MTCC 2102); test: HN12b in combination with efflux pump inhibitors (CB method, FICI); settings: for FICI: Providencia sp. (MTCC 2102)
Method: as §2, §3

[10] = system: E. coli K12 mutant ΔTopIA; test: Susceptibility of E. coli K12 and mutants (MIC90); settings: Escherichia coli
Method: as §1

[11] = K. planticola (MTCC 2272), HN12b + CCCP
[12] = A. baumannii (MTCC1920), HN12b + CCCP
[13] = Enterococcus sp. (1121), HN12b + CCCP
[14] = P. aeruginosa (MTCC1688), HN12b + CCCP
[15] = Enterococcus sp. (2105), HN12b + CCCP
[16] = Providencia sp. (P592), HN12b + PAβN

## CCCN1CCN(c2nc3ccc(-c4nc5ccccc5[nH]4)cc3[nH]2)CC1 [HN12b, 2′-(4-propylpiperazine-1-yl)-1H, 3′H-2,5′-bibenzimidazole]
E. coli 81^R
  MBC: 2 µg/mL (≈ 5.55 µM)
  MIC50: 1 µg/mL (≈ 2.77 µM)
  MIC90: 1.6 µg/mL (≈ 4.44 µM)
E. coli K12 mutant ΔacrA
  MIC90: 0.87 µg/mL (≈ 2.41 µM)
E. coli ATCC25922; HN12b + CCCP
  FICI: 0.3
  Interpretation: Synergy (FICI of ≤0.5 will correspond to synergy)
E. coli ATCC25922; HN12b + PAβN
  FICI: 0.1
  Interpretation: Synergy (FICI of ≤0.5 will correspond to synergy)
E. coli ATCC25922; Escherichia coli, ATCC25922
  MIC90: 14 µg/mL
E. coli K12
  MIC90: 8 µg/mL (≈ 22.2 µM)
[1]; [11]
  FICI: 0.5
  Interpretation: Synergy (FICI of ≤0.5 will correspond to synergy)
[1]; K. planticola (MTCC 2272), HN12b + PAβN
  FICI: 1
[1]; Klebsiella planticola, MTCC2272
  MIC90: > 128 µg/mL
A. baumannii (MTCC1920); [12]
  FICI: 0.5
  Interpretation: Synergy (FICI of ≤0.5 will correspond to synergy)
A. baumannii (MTCC1920); A. baumannii (MTCC1920), HN12b + PAβN
  FICI: 0.9
A. baumannii (MTCC1920); Acinetobacter baumannii, MTCC1920
  MIC90: > 128 µg/mL
E. coli 451^R
  MBC: 2 µg/mL (≈ 5.55 µM)
  MIC50: 1 µg/mL (≈ 2.77 µM)
  MIC90: 1.7 µg/mL (≈ 4.72 µM)
Enterococcus sp. (1121) [2]; Enterococcus
  MIC90: 8 µg/mL
Enterococcus sp. (1121) [2]; [13]
  FICI: 0.5
  Interpretation: Synergy (FICI of ≤0.5 will correspond to synergy)
Enterococcus sp. (1121) [2]; Enterococcus sp. (1121), HN12b + PAβN
  FICI: 1
Enterococcus sp. (1121) [3]
  MIC50: < 0.25 µg/mL
  MIC90: 8 µg/mL (≈ 22.2 µM)
[4]
  MIC50: 1.22 µg/mL (≈ 3.38 µM)
  MIC90: 1.22 µg/mL (≈ 3.38 µM)
Escherichia coli 392
  MIC50: 17.9 µg/mL (≈ 49.7 µM)
  MIC90: 64.5 µg/mL (≈ 179 µM)
E. coli 151^R
  MBC: 2 µg/mL (≈ 5.55 µM)
  MIC50: 1 µg/mL (≈ 2.77 µM)
  MIC90: 1.7 µg/mL (≈ 4.72 µM)
Enterococcus sp. (1365)
  MIC50: 0.25 µg/mL (≈ 0.694 µM)
  MIC90: 11.2 µg/mL (≈ 31.2 µM)
[5]
  MIC50: 3.8 µg/mL (≈ 10.5 µM)
  MIC90: 3.8 µg/mL (≈ 10.5 µM)
E. coli 360^R
  MBC: 2 µg/mL (≈ 5.55 µM)
  MIC50: 1 µg/mL (≈ 2.77 µM)
  MIC90: 1.6 µg/mL (≈ 4.44 µM)
Staphylococcus sp. (976)
  MIC50: 0.31 µg/mL (≈ 0.86 µM)
  MIC90: 15.3 µg/mL (≈ 42.5 µM)
P. aeruginosa (MTCC1688); [14]
  FICI: 0.6
  Interpretation: Synergy (FICI of ≤0.5 will correspond to synergy)
P. aeruginosa (MTCC1688); P. aeruginosa (MTCC1688), HN12b + PAβN
  FICI: 1
P. aeruginosa (MTCC1688); Pseudomonas aeruginosa, MTCC1688
  MIC90: > 128 µg/mL
Enterococcus sp.(1150)
  MIC50: 0.25 µg/mL (≈ 0.694 µM)
  MIC90: 13.2 µg/mL (≈ 36.8 µM)
[6]
  MIC50: < 0.25 µg/mL
  MIC90: < 0.25 µg/mL
E. coli K12 mutant ΔemrA
  MIC90: 5.8 µg/mL (≈ 16.1 µM)
Enterococcus sp. (2105); Enterococcus
  MIC90: 128 µg/mL
Enterococcus sp. (2105); [15]
  FICI: 0.5
  Interpretation: Synergy (FICI of ≤0.5 will correspond to synergy)
Enterococcus sp. (2105); Enterococcus sp. (2105), HN12b + PAβN
  FICI: 1
[7]
  MIC50: 34.4 µg/mL (≈ 95.5 µM)
  MIC90: 124 µg/mL (≈ 344 µM)
Providencia sp. (P592); Providencia
  MIC90: 58 µg/mL
Providencia sp. (P592); Providencia sp. (P592), HN12b + CCCP
  FICI: 0.6
Providencia sp. (P592); [16]
  FICI: 0.4
  Interpretation: Synergy (FICI of ≤0.5 will correspond to synergy)
[8]
  reduction in MIC in combination with efflux pump inhibitor: four to eight fold reduction in MIC
E. coli K12 mutant ΔompC
  MIC90: 3.8 µg/mL (≈ 10.5 µM)
[9]; HN12b + CCCP
  FICI: 0.6
[9]; HN12b + PAβN
  FICI: 1
[9]; Providencia, MTCC2102
  MIC90: > 128 µg/mL
[10]
  MIC90: 2.8 µg/mL (≈ 7.77 µM)
